According to US20180110218A1, “Substrate for Controlling Flies and Other Insects, Method for Manufacturing Thereof and Use of Said Substrate as Animal Litter” (priority 2016, published 2018):
“Also recorded” adds a separate entry of the source.

Tests used:
Type in all cases: in vivo
[1] = system: Musca domestica larvae and pupae; assay: Test 5: mortality of M. domestica, wood shavings impregnated with cyromazine formulations on horse manure
Experimental: The absorbent substrate impregnated were wood shavings of the “Great Northern” pine tree, which are the most commonly used for horse litters.
For the effectiveness studies, the formulations for impregnating the wood shavings were applied manually by means of a container with a spray gun. Several sprayings were carried out, turning the wood shavings halfway to ensure that they were homogeneously impregnated.
The organic matter used was rabbit excrement in the first two tests with pyriproxyfen, due to its increased availability and high infestation with fly larvae. For tests 3 and 4 with pyriproxyfen and the test carried out with cyromazine, horse excrement was used since it is the main object on which the product is applied. In both cases, manure with high levels of fly larvae infestation was selected in order to obtain a suitable number of larvae per test. […]
In the case of the test with cyromazine, after the 5 days of exposure the dead pupae and larvae were separated. Once the adults emerged, the dead larvae, the unviable pupae and the adults that emerged (healthy and malformed) were counted in order to calculate the mortality rate for each case. […]

[2] = system: Musca domestica larvae and pupae; assay: Test 1: pupal mortality of M. domestica, wood shavings impregnated with pyriproxyfen/diflubenzuron formulations on rabbit manure
Excerpt: (§1) The organic matter used was rabbit excrement in the first two tests with pyriproxyfen, due to its increased availability and high infestation with fly larvae. […] In both cases, manure with high levels of fly larvae infestation was selected in order to obtain a suitable number of larvae per test. […]
(§2) In the case of the tests of litters with pyriproxyfen, after 5 days of exposure (enough time for the larvae to progress to the pupal stage), the pupae were separated in plastic cups covered with a net, waiting for the adults to emerge. Once the adults emerged, the unviable pupae and the adults that emerged (healthy and malformed) were counted in order to calculate the mortality rate for each case. […]

[3] = system: Musca domestica larvae and pupae; assay: Test 4: pupal mortality of M. domestica, wood shavings impregnated with low-concentration pyriproxyfen formulations on horse manure
Excerpt: as §1, §2

With Nc1nc(N)nc(NC2CC2)n1 [cyromazine] the “effectiveness (in words)” value [1] was “effective in low doses”.

O=C(NC(=O)c1c(F)cccc1F)Nc1ccc(Cl)cc1 [diflubenzuron] was tested, and the “mortality results / effectiveness (in words)” value [2] was “effective in low doses”.

For CC(COc1ccc(Oc2ccccc2)cc1)Oc1ccccn1 (stereo not drawn) [pyriproxyfen], the “effectiveness as a pupicide (in words)” value [3] was “good effectiveness; also recorded: effective in low doses”.
